From patent US9084766B2, “Compounds and compositions for targeting cancer stem cells” (Boston Biomedical, Inc., priority 2010, dated 2015)
pIC50: −log10 of the molar value. “Also recorded” adds a separate entry of the source. Read-outs that look alike come from different tables or passages of the source.

How the values were obtained:
[1] = test system: FaDu human head and neck cancer; assay: Antitumor activity in subcutaneous FaDu xenograft mice; type: in vivo
Experimental: In the studies shown in FIG. 8, immunosuppressed mice with established subcutaneous FaDu human head and neck cancer were given indicated amount of hand grounded Compound 1 with Crystal Form 1, or vehicle control orally (po). Compound 1 was formulated in […]™. All regimens were administered daily (qd). Tumor sizes were evaluated periodically during treatment.
In the study shown in FIG. 9, immunosuppressed mice with established subcutaneous FaDu human head and neck cancer were given 100 mg/kg of micronized Compound 1 produced with the synthetic process described in FIGS. 5A and 5B (first crop), or vehicle control orally (po). Compound 1 was formulated in […]™. All regimens were administered daily (qd). Tumor sizes were evaluated periodically during treatment. Form 2 has been successfully manufactured by a current good manufacturing practice (cGMP) process and received approval from the FDA and Health Canada to be used in clinical trials.
Form 3 can only be generated from Form 1 using a specially designed slurry process described herein. […] In the study shown in FIG. 10, immunosuppressed mice with established subcutaneous FaDu human head and neck cancer were given 200 mg/kg of Compound 1 with hand grounded Crystal Form 1 or Form 3, or vehicle control orally (po). Compound 1 was formulated in gelucire. All regimens were administered daily (qd). Tumor sizes were evaluated periodically during treatment. This polymorph has been successfully manufactured by a cGMP process and received approval from FDA and Health Canada to be used in clinical trials.
The anti-tumor activity of particles of Compound 1 with different particle size ranges is illustrated in FIG. 15, and the pharmacokinetic data for particles of Compound 1 with different particle size ranges is illustrated in FIGS. 16-18. In the study shown in FIG. 15, immunosuppressed mice with established subcutaneous FaDu human head and neck cancer were given indicated amount of Compound 1 with indicated particle size, or vehicle control orally (po). All regimens were administered daily (qd). Tumor size was evaluated periodically.
In an experiment, a formulation of Compound 1 particles sieved to 160 micron was tested in the model of immunosuppressed mice with established subcutaneous xenograft FaDu human head and neck cancer. The pharmaceutical composition was formulated as 80 mg/ml in 9% Gelucire, 20% Vitamin E TPGS (Table 3). […] All regimens were administered daily (qd).
In an experiment, Compound 1 crystals were milled to a median particle size of about 20 micron. […] All regimens were administered daily (qd).
FaDu human head and neck cancer cells were inoculated subcutaneously into female athymic nude mice (6×10^6 cells/mouse) and allowed to form palpable tumors. When the tumors reached approximately 100 mm^3, the animals were treated orally (po) with Compound 1 at 100 mg/kg or vehicle control daily. Compound 1 was formulated at 10 mg/ml in 20% gelucire. Tumors and bodyweights were measured throughout treatment (FIG. 15).
Daily examinations into the health status of each animal were also conducted. Body weights were checked every three days. Food and water was supplied daily according to the animal husbandry procedures of the facility. Treatment producing>20% lethality and or >20% net body weight loss were considered toxic. Results are expressed as mean tumor volume (mm^3)±SE. P Values<0.05 are considered to be statistically relevant.
Male or female athymic nude mice 4-5 weeks (Charles River Laboratories, Wilmington, Mass.), were acclimated to the animal housing facility for at least 1 week before study initiation. […]

CD34+ BM Myeloid = assay: IC50 versus treatment time, CD34+ BM Myeloid; type: cell-based; details: normal cells CD34+ BM Myeloid, treatment time 12-24 h
Experimental: (§1) The studies described herein discovered counter-intuitively that cancer cells and cancer stem cells requires much shorter exposure than normal cells to be killed by Compound 1. Normal cells can tolerate up to 24 hours of exposure to Compound 1. Furthermore, the studies here discovered that normal cells can recover after a short period of no-drug exposure, while cancer cells cannot recover once they are exposed to a certain concentration of the Compound 1 for at least 2 hours. Based on these studies, a special pharmacokinetic exposure [termed selective pharmacokinetic profile (SPP), or preferred pharmacokinetic profile (PPP), which is used interchangeably in this publication] was designed for Compound 1 using the data shown below in Table 14 for achieving selective antitumor activity in patients (FIG. 24).

[2] = test system: cancer cells and normal cells; assay: Exposure time/concentration selectivity, cancer cells versus normal cells; type: cell-based
Experimental: as §1
Preferably, cancer cells must be exposed to a Compound of the Invention such as Compound 1, particles, polymorphs and/or purified forms thereof for 4 hours at concentration greater than 0.2 μM in order to induce cancer cell death. […] A reduced particle size of Compound 1 achieved this preferred pharmacokinetic pattern and selective activity.
The selective activity of Compound 1 in killing cancer cells and sparing normal cells is represented by the data in Table 14 and illustrated in FIG. 24.

CD34+ BM Erythroid = assay: IC50 versus treatment time, CD34+ BM Erythroid; type: cell-based; details: normal cells CD34+ BM Erythroid, treatment time 12-24 h
Experimental: as §1

[3] = Compound concentration in patient urine; type: in vivo, human
[4] = test system: cancer cells or cancer stem cells; assay: In vitro IC50 on cancer cells or cancer stem cells; type: cell-based
[5] = previous studies; cited from earlier work
PMBCs = assay: IC50 versus treatment time, PMBCs; type: cell-based; details: normal cells PMBCs
Experimental: as §1

[6] = test system: cancer cells and normal cells; details: Hirai et al. 1999; Takano et al. 2009; previous studies; cited from earlier work

For CC(=O)c1cc2c(o1)C(=O)c1ccccc1C2=O [Compound 1, 2-acetyl-4H,9H-naphtho[2,3-b]furan-4,9-dione], the anti-tumor activity ([1]; composition of particle size less than 5 micron, mice) was “potent anti-tumor activity”, the efficacy ([1]; composition with particle size greater than 20 micron, mice) was “no or weak efficacy” and the efficacy ([1]; median particle size about 2 micron, 100 mg/kg po daily, 20% gelucire, 100 mg/kg) was “surprisingly enhanced anti-tumor activity; also recorded: good efficacy; also recorded: strong efficacy; also recorded: potent efficacy”. For the same compound, the efficacy ([1]; median particle size about 2 micron, 100 mg/kg po daily, 20% gelucire, listed as naphthofuran compound, 100 mg/kg) was “dramatically enhanced efficacy”, the efficacy ([1]; median particle size about 20 micron, 200 mg/kg daily oral, 200 mg/kg) was “weak or moderate efficacy” and the efficacy ([1]; median particle size about 20 micron, 200 mg/kg daily oral, listed as naphthofuran compound, 200 mg/kg) was “relative weak”. For the same compound, the anti-tumor activity ([1]; nanoparticles, D50 about 100 nanometers (110.4 nanometers)) was “reduction of anti-tumor activity”, the efficacy ([1]; particles sieved to 160 micron (150 micron), 400 mg/kg daily oral, 400 mg/kg) was “no efficacy” and the efficacy ([1]; particles sieved to 160 micron (150 micron), 400 mg/kg daily oral, listed as naphthofuran compound, 400 mg/kg) was “no efficacy”. The pIC50 (CD34+ BM Myeloid) was under 4.52, the selectivity ([2]; concentration greater than from about 0.5 to about 3 μM for less than 24 hours) was “selective activity in killing cancer cells and sparing normal cells” and the selectivity ([2]; concentrations of about or above 0.2 and 30 μM for from about 4 hours up to about 24 hours) was “selective killing of cancer cells and sparing of normal cells”. The “killing of cancer cells” value ([2]; concentrations of less than 0.5 μM, regardless of exposure time) was “no killing of cancer cells”, the selectivity ([2]; continuous exposure for greater than 24 hours) was “loss of selectivity” and the “exposure time tolerated by normal cells” value ([2]; normal cells) was “up to 24 hours”. For the same compound, the pIC50 (CD34+ BM Erythroid) was under 4.52, the “BBI608 concentration in patient urine” value ([3]; patient 7, total daily dose 320 mg, 120-240 min post dose) was 4.3 µM and the “BBI608 concentration in patient urine” value ([3]; patient 7, total daily dose 320 mg, 360-480 min post dose) was 23.1 µM. For the same compound, the “BBI608 concentration in patient urine” value ([3]; patient 8, total daily dose 320 mg, 120-240 min post dose) was 7.9 µM, the “BBI608 concentration in patient urine” value ([3]; patient 8, total daily dose 320 mg, 360-480 min post dose) was 1.8 µM and the “BBI608 concentration in patient urine” value ([3]; patient 9, total daily dose 320 mg, 120-240 min post dose) was 8.9 µM. For the same compound, the “BBI608 concentration in patient urine” value ([3]; patient 9, total daily dose 320 mg, 360-480 min post dose) was 23.6 µM, the “BBI608 concentration in patient urine” value ([3]; patient 10, total daily dose 320 mg, 120-240 min post dose) was 22.7 µM and the “BBI608 concentration in patient urine” value ([3]; patient 10, total daily dose 320 mg, 360-480 min post dose) was 26.2 µM. For the same compound, the “BBI608 concentration in patient urine” value ([3]; patient 11, total daily dose 320 mg, 120-240 min post dose) was 1.8 µM, the “BBI608 concentration in patient urine” value ([3]; patient 11, total daily dose 320 mg, 360-480 min post dose) was 4.5 µM and the “BBI608 concentration in patient urine” value ([3]; patient 12, total daily dose 400 mg, 120-240 min post dose) was 4.11 µM. For the same compound, the “BBI608 concentration in patient urine” value ([3]; patient 12, total daily dose 400 mg, 360-480 min post dose) was 3.86 µM, the “BBI608 concentration in patient urine” value ([3]; patient 14, total daily dose 400 mg, 120-240 min post dose) was 1.42 µM and the “BBI608 concentration in patient urine” value ([3]; patient 14, total daily dose 400 mg, 360-480 min post dose) was 5 µM. For the same compound, the “BBI608 concentration in patient urine” value ([3]; patient 15, total daily dose 600 mg, 120-240 min post dose) was 3.1 µM, the “BBI608 concentration in patient urine” value ([3]; patient 15, total daily dose 600 mg, 360-480 min post dose) was 10.65 µM and the “BBI608 concentration in patient urine” value ([3]; patient 17, total daily dose 600 mg, 120-240 min post dose) was 1.66 µM. For the same compound, the “BBI608 concentration in patient urine” value ([3]; patient 17, total daily dose 600 mg, 360-480 min post dose) was 45.35 µM, the “BBI608 concentration in patient urine” value ([3]; patient 18, total daily dose 600 mg, 120-240 min post dose) was 2.41 µM and the “BBI608 concentration in patient urine” value ([3]; patient 18, total daily dose 600 mg, 360-480 min post dose) was 6.3 µM. The “BBI608 concentration in patient urine” value ([3]; patient 20, total daily dose 800 mg, 120-240 min post dose) was 6.17 µM, the “BBI608 concentration in patient urine” value ([3]; patient 20, total daily dose 800 mg, 360-480 min post dose) was 118.25 µM and the “BBI608 concentration in patient urine” value ([3]; patient 21, total daily dose 800 mg, 120-240 min post dose) was 0.42 µM. For the same compound, the “BBI608 concentration in patient urine” value ([3]; patient 21, total daily dose 800 mg, 360-480 min post dose) was 7.42 µM, the “BBI608 concentration in patient urine” value ([3]; patient 23, total daily dose 800 mg, 120-240 min post dose) was 2.51 µM and the “BBI608 concentration in patient urine” value ([3]; patient 23, total daily dose 800 mg, 360-480 min post dose) was 11.97 µM. The pIC50 ([4]; preclinical studies, read-out: IC50 to kill cancer cells or cancer stem cells) was 6.70 to 7.00, the pIC50 ([4]; read-out: IC50 of the compound in vitro) was 6.30 to 7.52 and the “antitumor activity in animal model” value [5] was “no antitumor activity was observed”. For the same compound, the pIC50 (PMBCs; treatment time 12-24 h) was 4.85, the pIC50 (PMBCs; treatment time 72 h) was 5.52 and the “toxicity to cancer cells and normal cells” value [6] was “equally toxic to normal and cancer cells; also recorded: equally toxic to cancer cells and normal cells”.
